Experimental data: PMC11267968 (BMC Cancer, 2024)

Assays:
[1] = system: subcutaneous GL2612 tumour; design: method as in PMID 29993291; details: with TMZ; mice; cited from earlier work
C6 orthotopic glioma = system: C6 orthotopic glioma; design: method as in PMID 29993291; details: with TMZ; C6 orthotopic rat model of glioma; cited from earlier work
[2] = system: orthotopic intracranial GL261 cell tumours; design: method as in PMID 26636389; details: cited from earlier work
U87 cell xenograft = system: U87 cell xenograft; design: method as in PMID 26636389; details: U87 cell xenograft model; cited from earlier work
[3] = Body weight in orthotopic glioblastoma mice; type: in vivo, C57BL/6J mice; details: repeated treatment; AT-0174 […] mg/kg PO; TMZ 8 mg/kg IP; compared to vehicle
Source text: Starting from day 6 after tumour cell inoculation, all mice were monitored in vivo until Day 55 for tumour growth (assessed by bioluminescence and measured on days 6, 14, 21, 28, 35, 42, and 49), body weight (monitored 3 times per week until day 18, and then daily from day 19–55), and survival.

[4] = system: tumour-infiltrating lymphocytes in GL261(luc2) glioblastomas; assay: Immune response profiling of tumour-infiltrating lymphocytes by FACS; type: in vivo, C57BL/6J mice; details: day 16, AT-0174 […] mg/kg PO, TMZ 8 mg/kg IP
Source text: On day 16 post-tumour inoculation, satellite animals from each experimental group were euthanized, and tumours were collected. Tumours were processed for organ dissociation using the GentleMACS system (Miltenyi Biotec) and myelin debris removal and homogenate purification through a Percoll gradient. Tumour homogenates were then processed for immunostaining and profiling analysis by flow cytometry for the lymphoid component according to a marker panel including CD45, CD3, CD4, CD8, IFNγ, CD25, and FoxP3. For IFNγ, homogenate samples were first stimulated with a cocktail of Phorbol 12-myristate 13-acetate, Ionomycin and Brefeldin A. Briefly, to assess viability, cells were stained with LIVE/DEAD Zombie NIR (Biolegend). For simultaneous detection of the intracellular molecule, after fixed, cells were permeabilized with Foxp3 transcription factor staining buffer set according to the manufacturer’s protocol (eBioscience). All flow antibodies were obtained from BioLegend.

## Cc1ccc(NC(=O)Nc2cc(-c3ccccc3-c3nn[nH]n3)ccc2N(CC(C)C)CC(C)C)cc1 [PCC0208009]
[1]
  Subcutaneous tumour growth: significantly synergised with TMZ
C6 orthotopic glioma
  Survival: improved survival

## Cn1cc(C[C@H](N)C(=O)O)c2ccccc21 [1-MT, 1-methyltryptophan]
[2]; TMZ in combination with 1-MT, compared to TMZ alone
  Survival duration: slight increase in the survival duration
[2]; orthotopic GL261 model, given alone
  Efficacy when given alone: ineffective
U87 cell xenograft
  Efficacy when given alone: ineffective

## Cn1nnc2c(C(N)=O)ncn2c1=O [TMZ, Temozolomide]
[3]
  Effect on body weight: mild (though non-significant) drop in body weight
[4]; vs control
  Cytotoxic CD8+ T cells in tumour: non-significant increase
[4]; vs vehicle control
  Tregs (CD4+CD25+FoxP3+ cells) in tumour: higher
